According to patent US9445998B2, “Pharmaceutical dosage forms comprising a low-solubility drug and a polymer” (Bend Research, Inc., priority 2004, dated 2016):
Converted amounts (≈) assume the structure as drawn. Counter-ions that a name gives are not always drawn. Like-named read-outs stand apart in the source and are kept apart here. One block for each molecule: values may come before it.

Columns and labels:
[1] = for solubility in phosphate buffered saline: pH 6.5; for maximum dissolved drug concentration: pH 6.5 PBS solution
Source text: It is known that some drugs may crystallize into one of several different crystal forms. Such crystal forms are often referred to as “polymorphs.” As used herein, “a high-energy crystalline form” means that the drug is in a crystal form which provides solubility improvement as described below.
By “amorphous” is meant simply that the drug is in a non-crystalline state. As used herein, the term “a major portion” of means that at least 60 wt % of the drug in the composition is in the amorphous form, rather than the crystalline form. […] Amounts of crystalline drug may be measured by Powder X-Ray Diffraction (PXRD), Scanning Electron Microscope (SEM) analysis, differential scanning calorimetry (DSC), or any other standard quantitative measurement.
An appropriate PBS solution is an aqueous solution comprising 20 mM Na2HPO4, 47 mM KH2PO4, 87 mM NaCl, and 0.2 mM KCl, adjusted to pH 6.5 with NaOH. An appropriate MFD solution is the same PBS solution wherein there is also present 7.3 mM sodium taurocholic acid and 1.4 mM of 1-palmitoyl-2-oleyl-sn-glycero-3-phosphocholine. Water is a preferred dissolution media for some fast precipitating salts. […] In such cases it may be preferred to use an unbuffered test medium such as distilled water as the dissolution medium.

[2] = format: physicochemical; conditions: not told
Description: An Accurel® PP 1E microporous polypropylene membrane was obtained from Membrana GmbH (Wuppertal, Germany). The membrane was washed in isopropyl alcohol and rinsed in methanol in a sonicating bath for 1 minute at ambient temperature, and then allowed to air dry at ambient temperature. The feed side of the membrane was then plasma-treated to render it hydrophilic by placing a sample of the membrane in a plasma chamber. The atmosphere of the plasma chamber was saturated with water vapor at a pressure of 550 mtorr. A plasma was then generated using radio frequency (RF) power inductively coupled into the chamber via annular electrodes at a power setting of 50 watts for 45 seconds. The contact angle of a drop of water placed on the surface of the plasma-treated membrane was less than about 40°. The contact angle of a drop of water placed on the permeate side of the same membrane was greater than about 110°.
A permeate reservoir was formed by gluing a sample of the plasma-treated membrane to a glass tube having an inside diameter of about 1 inch (2.54 cm) using an epoxy-based glue (LOCTITE® E-30CL HYSOL® from Henkel Loctite Corp, Rocky Hill, Conn.). The feed-side of the membrane was oriented so that it was on the outside of the permeate reservoir, while the permeate-side of the membrane was oriented so that it was on the inside of the reservoir. The effective membrane area of the membrane on the permeate reservoir was about 4.9 cm^2. The permeate reservoir was placed into a glass feed reservoir. The feed reservoir was equipped with a magnetic stir bar and the reservoir was placed on a stir plate and the stir rate was set to 100 rpm during the test. The apparatus was placed into a chamber maintained at 37° C. for the duration of the test. Further details of the test apparatus and protocols are presented in co-pending U.S. Patent Application Ser. No. 60/557,897, entitled “Method and Device for Evaluation of Pharmaceutical Compositions,” filed Mar. 30, 2004, incorporated herein by reference.
To form the feed solution, a 1.429 mg (0.5 mgA) sample of CC-1 was weighed into a feed reservoir. (As used herein, “mgA” is milligrams of active drug, reported as the free base, non-salt form, non-hydrate drug molecule.) To this was added 5 mL of the MFD solution previously described, consisting of PBS solution containing 7.3 mM sodium taurocholic acid and 1.4 mM of 1-palmitoyl-2-oleyl-sn-glycero-3-phosphocholine (0.5% NaTC/POPC). […] The feed solution was mixed using a vortex mixer for 1 minute. Before the membrane contacted the feed solution, 5 mL of 60 wt % decanol in decane was placed into the permeate reservoir. Time zero in the test was when the membrane was placed in contact with the feed solution. A […] aliquot of the permeate solution was collected at the times indicated. Samples were then diluted in […] IPA and analyzed using HPLC.
The maximum flux of drug across the membrane (in units of μgA/cm^2-min) was determined by performing a least-squares fit to the data in Table 4 from 0 to 60 minutes to obtain the slope (CC-1: 0.26 μgA/mL-min; Control 1A: 0.13 μgA/mL-min; Control 1B: 0.07 μgA/mL-min), multiplying the slope by the permeate volume (5 mL), and dividing by the membrane area (4.9 cm^2).

Solubility in water = format: physicochemical; conditions: expressed as the free base, hydrochloride monohydrate
Source text: An example of a drug having a crystalline highly soluble salt form is ziprasidone. Ziprasidone hydrochloride monohydrate has a solubility of about 10 μgA/mL (expressed as the free base) in water, whereas the free base form has a solubility of less than about 0.2 μgA/mL under the same conditions. Thus, crystalline ziprasidone hydrochloride is a solubility-improved form relative to the crystalline free base form of ziprasidone.

[3] = Microcentrifuge dissolution test in MFD solution; format: physicochemical; parameters: AUC: concentration or dose not given beside the values; conditions: for Dissolved Ziprasidone Concentration / AUC: MFD solution pH 6.5, 37° C.; for Dissolved Ziprasidone Concentration: 200 μgA/mL if all dissolved
Description: A microcentrifuge dissolution test was performed to verify that ziprasidone hydrochloride monohydrate is a solubility-improved form of ziprasidone. For this test, a sufficient amount of ziprasidone hydrochloride monohydrate was added to a microcentrifuge test tube so that the concentration of ziprasidone would have been 200 μgA/mL, if all of the ziprasidone had dissolved. The tests were run in duplicate. The tubes were placed in a 37° C. temperature-controlled chamber, and 1.8 mL MFD solution at pH 6.5 and 290 mOsm/kg was added to each respective tube. The samples were quickly mixed using a vortex mixer for about 60 seconds. The samples were centrifuged at 13,000 G at 37° C. for 1 minute prior to collecting a sample. The resulting supernatant solution was then sampled and diluted 1:5 (by volume) with methanol. Samples were analyzed by high-performance liquid chromatography (HPLC) at a UV absorbance of 315 nm using a Zorbax RxC8 Reliance column and a mobile phase consisting of 55% (50 mM potassium dihydrogen phosphate, pH 6.5)/45% acetonitrile. Drug concentration was calculated by comparing UV absorbance of samples to the absorbance of drug standards. The contents of each tube were mixed on the vortex mixer and allowed to stand undisturbed at 37° C. until the next sample was taken. Samples were collected at 4, 10, 20, 40, 90, and 1200 minutes following administration to the MFD solution.
A similar test was performed with the crystalline ziprasidone free base as a control, and a sufficient amount of material was added so that the concentration of compound would have been 200 μgA/mL, if all of the ziprasidone had dissolved.
The concentrations of ziprasidone obtained in these tests were used to determine the maximum dissolved concentration of ziprasidone (“MDC90”) and the area under the concentration-versus-time curve (“AUC90”) during the initial ninety minutes.

Molecule: O=C1Cc2cc(CCN3CCN(c4nsc5ccccc45)CC3)c(Cl)cc2N1 [Ziprasidone hydrochloride monohydrate, ziprasidone hydrochloride monohydrate]
- Maximum Flux of Ziprasidone [2]: 0.16 μgA/cm^2-min
- Concentration (drug in the permeate solution) ([2]; 0 min, 100 μgA/mL, pH 6.5): 0.5 μgA/mL
- Concentration (drug in the permeate solution) ([2]; 20 min, 100 μgA/mL, pH 6.5): 5.2 μgA/mL
- Concentration (drug in the permeate solution) ([2]; 40 min, 100 μgA/mL, pH 6.5): 8.1 μgA/mL
- Concentration (drug in the permeate solution) ([2]; 60 min, 100 μgA/mL, pH 6.5): 10.0 μgA/mL
- Concentration (drug in the permeate solution) ([2]; 90 min, 100 μgA/mL, pH 6.5): 11.4 μgA/mL
- Concentration (drug in the permeate solution) ([2]; 120 min, 100 μgA/mL, pH 6.5): 12.9 μgA/mL
- Concentration (drug in the permeate solution) ([2]; 180 min, 100 μgA/mL, pH 6.5): 18.1 μgA/mL
- Concentration (drug in the permeate solution) ([2]; 240 min, 100 μgA/mL, pH 6.5): 20.9 μgA/mL
- Concentration (drug in the permeate solution) ([2]; 360 min, 100 μgA/mL, pH 6.5): 22.6 μgA/mL
- solubility in water (Solubility in water): about 10 μgA/mL
- AUC90 relative to that provided by the free base ([3]; MFD solution): 14 fold
- MDC90 relative to that provided by the free base ([3]; MFD solution): 11 fold
- Dissolved Ziprasidone Concentration ([3]; time 0 min): 0 μgA/mL
- Dissolved Ziprasidone Concentration ([3]; time 4 min, hydrochloride monohydrate): 14 μgA/mL
- Dissolved Ziprasidone Concentration ([3]; time 10 min, hydrochloride monohydrate): 15 μgA/mL
- Dissolved Ziprasidone Concentration ([3]; time 20 min, hydrochloride monohydrate): 20 μgA/mL
- Dissolved Ziprasidone Concentration ([3]; time 40 min, hydrochloride monohydrate): 22 μgA/mL
- Dissolved Ziprasidone Concentration ([3]; time 90 min, hydrochloride monohydrate): 18 μgA/mL
- Dissolved Ziprasidone Concentration ([3]; time 1200 min, hydrochloride monohydrate): 9 μgA/mL
- AUC ([3]; up to time 0 min): 0 min-μgA/mL
- AUC ([3]; up to time 4 min, hydrochloride monohydrate): 30 min-μgA/mL
- AUC ([3]; up to time 10 min, hydrochloride monohydrate): 110 min-μgA/mL
- AUC ([3]; up to time 20 min, hydrochloride monohydrate): 280 min-μgA/mL
- AUC ([3]; up to time 40 min, hydrochloride monohydrate): 700 min-μgA/mL
- AUC ([3]; up to time 90 min, hydrochloride monohydrate): 1,700 min-μgA/mL
- AUC ([3]; up to time 1200 min, hydrochloride monohydrate): 16,400 min-μgA/mL
- AUC90 ([3]; area under the concentration-versus-time curve during the initial ninety minutes, MFD solution, hydrochloride monohydrate): 1700 min·µgA/mL
- MDC90 ([3]; maximum dissolved concentration during the initial ninety minutes, MFD solution, hydrochloride monohydrate): 22 µgA/mL

Molecule: O=C(N[C@@H](Cc1ccccc1)[C@@H](O)C(=O)N1C[C@@H](O)[C@@H](O)C1)c1cc2cc(Cl)ccc2[nH]1 [amorphous form, 5-chloro-1H-indole-2-carboxylic acid [(1S)-benzyl-3-((3R,4S)-dihydroxypyrrolidin-1-yl-)-(2R)-hydroxy-3-oxypropyl]amide]
- maximum dissolved drug concentration [1]: about 600 μg/mL

Molecule: ziprasidone tosylate [Control 3]
- Maximum Flux of Ziprasidone [2]: 0.04 μg/cm^2-min

The next lines start with the values.

- solubility in phosphate buffered saline [1]: about 480 μg/mL
Molecule: O=C(N[C@@H](Cc1ccccc1)[C@@H](O)C(=O)N1C[C@@H](O)[C@@H](O)C1)c1cc2cc(Cl)ccc2[nH]1 [A1, 5-chloro-1H-indole-2-carboxylic acid [(1S)-benzyl-3-((3R,4S)-dihydroxypyrrolidin-1-yl)-(2R)-hydroxy-3-oxpropyl]amide]

- solubility in phosphate buffered saline [1]: 87 µg/mL (≈ 190 µM)
- maximum dissolved drug concentration [1]: 87 µg/mL
Molecule: O=C(N[C@@H](Cc1ccccc1)[C@@H](O)C(=O)N1C[C@@H](O)[C@@H](O)C1)c1cc2cc(Cl)ccc2[nH]1 [A2, 5-chloro-1H-indole-2-carboxylic acid [(1S)-benzyl-3-((3R,4S)-dihydroxypyrrolidin-1-yl)-(2R)-hydroxy-3-oxpropyl]amide]

- Ziprasidone Concentration in Permeate ([2]; 0 min, 100 μgA/mL, pH 6.5): 0.5 μgA/mL
- Maximum Flux of Ziprasidone ([2]; 100 μgA/mL, pH 6.5): 0.13 μgA/cm^2-min
- Ziprasidone Concentration in Permeate ([2]; 20 min, 100 μgA/mL, pH 6.5): 3.8 μgA/mL
- Ziprasidone Concentration in Permeate ([2]; 40 min, 100 μgA/mL, pH 6.5): 6.0 μgA/mL
- Ziprasidone Concentration in Permeate ([2]; 60 min, 100 μgA/mL, pH 6.5): 8.4 μgA/mL
- Ziprasidone Concentration in Permeate ([2]; 90 min, 100 μgA/mL, pH 6.5): 12.4 μgA/mL
- Ziprasidone Concentration in Permeate ([2]; 120 min, 100 μgA/mL, pH 6.5): 15.3 μgA/mL
- Ziprasidone Concentration in Permeate ([2]; 180 min, 100 μgA/mL, pH 6.5): 20.6 μgA/mL
- Ziprasidone Concentration in Permeate ([2]; 240 min, 100 μgA/mL, pH 6.5): 25.2 μgA/mL
- Ziprasidone Concentration in Permeate ([2]; 360 min, 100 μgA/mL, pH 6.5): 30.6 μgA/mL
Molecule: O=C1Cc2cc(CCN3CCN(c4nsc5ccccc45)CC3)c(Cl)cc2N1 [Control 1A, ziprasidone hydrochloride monohydrate]
